How the values were obtained:
Type in all cases: cell-based
[1] = test system: YAP/TAZ-TEAD transcription; assay: Reporter gene assay for measuring the inhibition of YAP/TAZ-TEAD transcription (TEAD-responsive element luciferase reporter, Hek293T cells); details: Hek293T cells transfected with TEAD-responsive element luciferase reporter, 24 hours incubation
Description: Hek293T cells were cultured in DMEM supplemented with 10% fetal bovine serum, Sodium pyruvate, Sodium bicarbonate, L-glutamine. The cells were harvested and transiently transfected with TEAD-responsive element luciferase reporter. Transfected cells were plated in 384-well plate containing pre-diluted compounds. After 24 hours incubation at 37° C./5% CO2, assay plates were cooled to room temperature and levelled to an equal volume per well, prior to the addition of 25 uL luciferase substrate SteadyLite (Perkin Elmer)/well. The plate was shaken for 10 min at 600 rpm, centrifuged for 1 min at 500 rpm and measured with an Envision reader (PerkinElmer). The amount of relative light units produced by the TEAD reporter was used to calculate the percentage of inhibition.
The percent of reporter inhibition was calculated in the presence of a positive control inhibitor (100% inhibition) versus a condition with the presence of the vehicle basal activity of the reporter (0% inhibition). The ability of a test compound to inhibit this activity was determined as: Percentage inhibition=[1-((RLU determined in the presence of vehicle−RLU determined for sample with test compound present) divided by (RLU determined in the presence of vehicle−RLU determined for sample with positive control inhibitor))]*100.
The activities of example compounds tested are depicted in Table 3. The activity ranges A, B and C refer to IC50 values in the reporter gene assay as follows: “A”: IC50<1 μM; “B”: 1 μM≤IC50 10 μM and “C”: IC50>10 μM; NT=not tested.

NCI-H226 = assay: Mesothelioma cell line proliferation assay (ATPlite), NCI-H226; details: NCI-H226 cells, 6 days with compound, ATPlite cell viability
Description: (§1) Mesothelioma cell lines, NCI-H226 and NCI-H2052 (both sourced from the ATCC cell culture collection) were plated in 96-well plates (Corning® 96 Well White Polystyrene Microplate clear flat bottom, white polystyrene (TC-Treated)), at 1500 cells/well in full medium (RPMI 1640 ATCC modification with L-glutamine, HEPES, Phenol Red, Sodium Pyruvate, High glucose, Low sodium bicarbonate and 10% fetal bovine serum). Cells were incubated overnight at 37° C. in an incubator with 5% CO2. Then compounds, dissolved in DMSO, were added in dose-response. Cells were incubated with compound dilutions for another 6 days at 37° C. in an incubator with 5% CO2. Cell viability was quantitated using the ATPlite kit (Perkin-Elmer) and the luminescence was read-out using an Envision instrument (Perkin-Elmer). The amount of relative light units produced using the ATPlite kit was used to calculate percent of inhibition.
(§2) The activities of some example compounds are depicted in Table 4. The activity ranges A, B and C refer to EC50 values in the mesothelioma cell line proliferation assay as described as follows: “A”: EC50<1 μM; “B”: 1 μM≤EC50<10 μM and “C”: EC50>10 μM; NT: not tested.

NCI-H2052 = assay: Mesothelioma cell line proliferation assay (ATPlite), NCI-H2052; details: NCI-H2052 cells, 6 days with compound, ATPlite cell viability
Description: as §1, §2

Row | IC50 ([1]; Homo sapiens, HEK-293T, 24 h) [nM] | EC50 (NCI-H226) [nM] | EC50 (NCI-H2052; Homo sapiens, 144 h) [nM] | IC50 [1] [nM] | EC50 (NCI-H226; Homo sapiens, 144 h) [nM] | EC50 (NCI-H2052) [nM] | SMILES
1 | < 1000 | – | < 1000 | – | < 1000 | – | C=CC(=O)NCC1Cc2ncccc2N(c2ccc(C(F)(F)F)cc2)C1 (single isomer, unassigned) [Cpd. No. 10-En1, (R)- or (S)-N-((1-(4-(trifluoromethyl)phenyl)-1,2,3,4-tetrahydro-1,5-naphthyridin-3-yl)methyl)acrylamide]
2 | – | – | < 1000 | < 1000 | < 1000 | – | CC(=O)NCC1Cc2ncccc2N(c2ccc(C(F)(F)F)cc2)C1 (single isomer, unassigned) [Cpd. No. 12-En2, (R)- or (S)-N-((1-(4-(trifluoromethyl)phenyl)-1,2,3,4-tetrahydro-1,5-naphthyridin-3-yl)methyl)acetamide]
3 | – | – | < 1000 | < 1000 | < 1000 | – | CC(=O)NCC1Cc2nc(C)ccc2N(c2ccc(C(F)(F)F)cc2)C1 (single isomer, unassigned) [Cpd. No. 26-En2, (R)- or (S)-N-((6-methyl-1-(4-(trifluoromethyl)phenyl)-1,2,3,4-tetrahydro-1,5-naphthyridin-3-yl)methyl)acetamide]
4 | – | – | < 1000 | < 1000 | < 1000 | – | [2H]C([2H])([2H])C(=O)NCC1Cc2ncccc2N(c2ccc(C(F)(F)F)cc2)C1 (single isomer, unassigned) [Cpd. No. 34-En2, (R)- or (S)-N-((1-(4-(trifluoromethyl)phenyl)-1,2,3,4-tetrahydro-1,5-naphthyridin-3-yl)methyl)acetamide-2,2,2-d3]
5 | – | – | < 1000 | < 1000 | < 1000 | – | CC(=O)NCC1(C)Cc2ncccc2N(c2ccc(C(F)(F)F)cc2)C1 (single isomer, unassigned) [Cpd. No. 47-En1, (R)- or (S)-N-((3-methyl-1-(4-(trifluoromethyl)phenyl)-1,2,3,4-tetrahydro-1,5-naphthyridin-3-yl)methyl)acetamide]
6 | < 1000 | – | < 1000 | – | < 1000 | – | CCC(=O)NCC1Cc2c(OCc3cc[nH]c(=O)c3)cccc2N(c2ccc(C(F)(F)F)cc2)C1 (stereo not shown) [Cpd. No. 7, N-((5-((2-oxo-1,2-dihydropyridin-4-yl)methoxy)-1-(4-(trifluoromethyl)phenyl)-1,2,3,4-tetrahydroquinolin-3-yl)methyl)propionamide]
7 | < 1000 | – | < 1000 | – | < 1000 | – | C=CC(=O)NCC1Cc2ncccc2N(c2ccc(C(F)(F)F)cc2)C1 (stereo not shown) [Cpd. No. 10, N-((1-(4-(trifluoromethyl)phenyl)-1,2,3,4-tetrahydro-1,5-naphthyridin-3-yl)methyl)acrylamide]

Continued, molecule first:

Row | SMILES | IC50 ([1]; Homo sapiens, HEK-293T, 24 h) [nM] | EC50 (NCI-H226) [nM] | EC50 (NCI-H2052; Homo sapiens, 144 h) [nM] | IC50 [1] [nM] | EC50 (NCI-H226; Homo sapiens, 144 h) [nM] | EC50 (NCI-H2052) [nM]
8 | C=CC(=O)NCC1Cc2c(OCc3cc[nH]c(=O)c3)cccc2N(c2ccc(C(F)(F)F)cc2)C1 (single isomer, unassigned) [Cpd. No. 6-En1, (R)- or (S)-N-((5-((2-oxo-1,2-dihydropyridin-4-yl)methoxy)-1-(4-(trifluoromethyl)phenyl)-1,2,3,4-tetrahydroquinolin-3-yl)methyl)acrylamide] | < 1000 | < 1000 | – | – | – | –
9 | C=CC(=O)NCC1Cc2c(OCc3cc[nH]c(=O)c3)cccc2N(c2ccc(C(F)(F)F)cc2)C1 (single isomer, unassigned) [Cpd. No. 6-En2, (R)- or (S)-N-((5-((2-oxo-1,2-dihydropyridin-4-yl)methoxy)-1-(4-(trifluoromethyl)phenyl)-1,2,3,4-tetrahydroquinolin-3-yl)methyl)acrylamide] | – | – | < 1000 | < 1000 | < 1000 | –
10 | C=CC(=O)NCC1Cc2c(OCc3cc(=O)[nH]c(=O)n3C)cccc2N(c2ccc(C(F)(F)F)cc2)C1 (single isomer, unassigned) [Cpd. No. 14-En1, (R)- or (S)-N-((5-((3-methyl-2,6-dioxo-1,2,3,6-tetrahydropyrimidin-4-yl)methoxy)-1-(4-(trifluoromethyl)phenyl)-1,2,3,4-tetrahydroquinolin-3-yl)methyl)acrylamide] | < 1000 | – | < 1000 | – | < 1000 | –
11 | C=CC(=O)NCC1Cc2c(OCc3cc(=O)[nH]c(=O)n3C)cccc2N(c2ccc(C(F)(F)F)cc2)C1 (single isomer, unassigned) [Cpd. No. 14-En2, (R)- or (S)-N-((5-((3-methyl-2,6-dioxo-1,2,3,6-tetrahydropyrimidin-4-yl)methoxy)-1-(4-(trifluoromethyl)phenyl)-1,2,3,4-tetrahydroquinolin-3-yl)methyl)acrylamide] | – | < 1000 | – | – | – | < 1000
12 | CCC(=O)NCC1Cc2ncccc2N(c2ccc(C(F)(F)F)cc2)C1 (single isomer, unassigned) [Cpd. No. 17-En2, (R)- or (S)-N-((1-(4-(trifluoromethyl)phenyl)-1,2,3,4-tetrahydro-1,5-naphthyridin-3-yl)methyl)propionamide] | – | – | < 1000 | < 1000 | < 1000 | –
13 | COc1ccc2c(n1)CC(CNC(C)=O)CN2c1ccc(C(F)(F)F)cc1 (single isomer, unassigned) [Cpd. No. 22-En2, (R)- or (S)-N-((6-methoxy-1-(4-(trifluoromethyl)phenyl)-1,2,3,4-tetrahydro-1,5-naphthyridin-3-yl)methyl)acetamide] | – | – | < 1000 | < 1000 | < 1000 | –
14 | C=CC(=O)NCC1Cc2c(OCc3cc(=O)[nH]c(=O)[nH]3)cccc2N(c2ccc(C(F)(F)F)cc2)C1 (stereo not shown) [Cpd. No. 4, N-((5-((2,6-dioxo-1,2,3,6-tetrahydropyrimidin-4-yl)methoxy)-1-(4-(trifluoromethyl)phenyl)-1,2,3,4-tetrahydroquinolin-3-yl)methyl)acrylamide] | < 1000 | – | < 1000 | – | < 1000 | –
15 | C=CC(=O)NCC1Cc2c(OCc3cc[nH]c(=O)c3)cccc2N(c2ccc(C(F)(F)F)cc2)C1 (stereo not shown) [Cpd. No. 6, N-((5-((2-oxo-1,2-dihydropyridin-4-yl)methoxy)-1-(4-(trifluoromethyl)phenyl)-1,2,3,4-tetrahydroquinolin-3-yl)methyl)acrylamide] | < 1000 | – | < 1000 | – | < 1000 | –
16 | C=CC(=O)NCC1Cc2c(CCN3CC(=O)NC(=O)C3)cccc2N(c2ccc(C(F)(F)F)cc2)C1 (stereo not shown) [Cpd. No. 11, N-((5-(2-(3,5-dioxopiperazin-1-yl)ethyl)-1-(4-(trifluoromethyl)phenyl)-1,2,3,4-tetrahydroquinolin-3-yl)methyl)acrylamide] | < 1000 | – | < 1000 | – | < 1000 | –
17 | CC(=O)NCC1Cc2ncccc2N(c2ccc(C(F)(F)F)cc2)C1 (stereo not shown) [Cpd. No. 12, N-((1-(4-(trifluoromethyl)phenyl)-1,2,3,4-tetrahydro-1,5-naphthyridin-3-yl)methyl)acetamide] | < 1000 | – | < 1000 | – | < 1000 | –
18 | C=CC(=O)NCC1Cc2c(OCc3cc(=O)[nH]c(=O)n3C)cccc2N(c2ccc(C(F)(F)F)cc2)C1 (stereo not shown) [Cpd. No. 14, N-((5-((3-methyl-2,6-dioxo-1,2,3,6-tetrahydropyrimidin-4-yl)methoxy)-1-(4-(trifluoromethyl)phenyl)-1,2,3,4-tetrahydroquinolin-3-yl)methyl)acrylamide] | < 1000 | – | < 1000 | – | < 1000 | –
19 | CC(=O)NCC1Cc2nc(C)ccc2N(c2ccc(C(F)(F)F)cc2)C1 (stereo not shown) [Cpd. No. 26, N-((6-methyl-1-(4-(trifluoromethyl)phenyl)-1,2,3,4-tetrahydro-1,5-naphthyridin-3-yl)methyl)acetamide] | < 1000 | – | < 1000 | – | < 1000 | –

From patent US20240417398A1, “TETRAHYDRONAPTHYRIDINE AND RELATED ANALOGS FOR INHIBITING YAP/TAZ-TEAD” (SpringWorks Therapeutics, Inc., priority 2023, published 2024)
